According to ChEMBL document CHEMBL4342450, “Antitumor Activity of Ohmyungsamycin A through the Regulation of the Skp2-p27 Axis and MCM4 in Human Colorectal Cancer Cells” (J Nat Prod, 2020):
Calls of active or inactive are those of the source. The calls are words filed in the database; no cut-off is given here. *1 amine or outer side, *2 acyl side, *3 side chain or, on linkers, in order; H or OH if unused. Where a SMILES comes first, the peptide text is derived from it. Bridges are numbered along the chain shown (N, C = ends). [ ]: non-standard residue; d: D form. Phe(3R-OH) = O=C([C@@H](N[*:1])[C@H](O[*:3])c1ccccc1)[*:2]; NMeTrp(4-OMe) = CN[C@@H](Cc1c[nH]c2cccc(OC)c12)C(=O)O; NMeT = CN[C@H](C(=O)O)[C@@H](C)O; NMeL = CN[C@@H](CC(C)C)C(=O)O; NMeV = CN[C@H](C(=O)O)C(C)C

Columns and labels:
HCT-116 [1] = experiment: Induction of apoptosis in human HCT116 cells assessed as increase in cleaved PARP level at 20 uM after 24 hrs by Western blot analysis; type: functional, cell-based
HCT-116 [2] = experiment: Downregulation of MCM4 gene expression in human HCT116 cells assessed as fold change at 15 uM incubated for 24 hrs by cDNA microarray analysis relative to control; type: functional
HCT-116 [3] = experiment: Downregulation of BMP4 gene expression in human HCT116 cells assessed as fold change at 15 uM incubated for 24 hrs by cDNA microarray analysis relative to control; type: functional
HCT-116 [4] = experiment: Induction of cell cycle arrest in human HCT116 cells assessed as accumulation at G2/M phase at 20 uM incubated for 18 hrs by propidium iodide staining based flow cytometry (reference value: 25.1%); type: functional
HCT-116 [5] = experiment: Decrease in cell cycle associated protein expression in human HCT116 cells assessed as reduction in cyclin D1 expression at 5 to 20 uM after 24 hrs by Western blot analysis; type: functional, cell-based
HCT-116 [6] = experiment: Induction of apoptosis in human HCT116 cells assessed as reduction in Bid level at 5 to 20 uM after 24 hrs by Western blot analysis; type: functional, cell-based
HCT-116 [7] = experiment: Decrease in cell cycle associated protein expression in human HCT116 cells assessed as reduction in CDK2 expression at 5 to 20 uM after 24 hrs by Western blot analysis; type: functional, cell-based
MRC5 = experiment: Antiproliferative activity against human MRC5 cells after 72 hrs by sulforhodamine B assay; type: cell-based; settings: MRC5, 72 h
HCT-116 [8] = experiment: Downregulation of INSIG1 gene expression in human HCT116 cells assessed as fold change at 15 uM incubated for 24 hrs by cDNA microarray analysis relative to control; type: functional
HCT-116 [9] = experiment: Downregulation of MCM10 gene expression in human HCT116 cells assessed as fold change at 15 uM incubated for 24 hrs by cDNA microarray analysis relative to control; type: functional
HCT-116 [10] = experiment: Downregulation of CDCA7 gene expression in human HCT116 cells assessed as fold change at 15 uM incubated for 24 hrs by cDNA microarray analysis relative to control; type: functional
HCT-116 [11] = experiment: Downregulation of MCM5 gene expression in human HCT116 cells assessed as fold change at 15 uM incubated for 24 hrs by cDNA microarray analysis relative to control; type: functional
HCT-116 [12] = experiment: Decrease in cell cycle associated protein expression in human HCT116 cells assessed as reduction in cyclin E expression at 5 to 20 uM after 24 hrs by Western blot analysis; type: functional, cell-based
A549 = experiment: Antiproliferative activity against human A549 cells after 72 hrs by sulforhodamine B assay; type: functional, cell-based; settings: A549, 72 h
HCT-116 [13] = experiment: Induction of cell cycle arrest in human HCT116 cells assessed as accumulation at G2/M phase at 20 uM incubated for 24 hrs by propidium iodide staining based flow cytometry (reference value: 15.7%); type: functional
HCT-116 [14] = experiment: Induction of cell cycle arrest in human HCT116 cells assessed as accumulation at G2/M phase at 5 uM incubated for 24 hrs by propidium iodide staining based flow cytometry (reference value: 15.7%); type: functional
HCT-116 [15] = experiment: Induction of cell cycle arrest in human HCT116 cells assessed as accumulation at S phase at 10 uM incubated for 24 hrs by propidium iodide staining based flow cytometry (reference value: 21.2%); type: functional
HCT-116 [16] = experiment: Induction of cell cycle arrest in human HCT116 cells assessed as accumulation at G0/G1 phase at 20 uM incubated for 24 hrs by propidium iodide staining based flow cytometry (reference value: 54.7%); type: functional
HCT-116 [17] = experiment: Antitumor activity against human HCT116 cells xenografted in BALB/c nude mouse assessed as tumor weight at 10 mg/kg, ip administered thrice a week for 3.5 weeks measured on last day (reference value: 100%); type: functional
HCT-116 [18] = experiment: Induction of cell cycle arrest in human HCT116 cells assessed as accumulation at sub-G1 phase at 20 uM incubated for 24 hrs by propidium iodide staining based flow cytometry (reference value: 4.8%); type: functional
HCT-116 [19] = experiment: Induction of cell cycle arrest in human HCT116 cells assessed as accumulation at sub-G1 phase at 10 uM incubated for 24 hrs by propidium iodide staining based flow cytometry (reference value: 4.8%); type: functional
HCT-116 [20] = experiment: Downregulation of cyclin E2 mRNA expression in human HCT116 cells after 12 hrs by RT-PCR method; type: functional, cell-based
HCT-116 [21] = experiment: Modulation of Skp2-p27 Axis in human HCT116 cells assessed as reduction in Skp2 mRNA level at 5 to 20 uM after 12 hrs by real-time PCR method; type: functional, cell-based
Mus musculus = experiment: In vivo modulation of Skp2-p27 axis in tumor of BALB/c nude mouse xenografted with human HCT116 cells assessed as downregulation of Skp2 mRNA level at 5 to 10 m/kg, ip administered thrice a week for 3.5 weeks by RT-PCR method; type: functional, organism-based
HCT-116 [22] = experiment: Antiproliferative activity against human HCT116 cells after 72 hrs by sulforhodamine B assay; type: functional, cell-based
HCT-116 [23] = experiment: Downregulation of MCM4 mRNA expression in human HCT116 cells after 12 hrs by RT-PCR method; type: functional, cell-based
[24] = Toxicity in BALB/c nude mouse assessed as changes in body weight at 5 to 10 mg/kg, ip administered thrice a week for 3.5 weeks; type: organism-based; settings: in vivo, 588 h
HCT-116 [25] = experiment: Induction of cell cycle arrest in human HCT116 cells assessed as accumulation at G2/M phase at 10 uM incubated for 24 hrs by propidium iodide staining based flow cytometry (reference value: 15.7%); type: functional
HCT-116 [26] = experiment: Downregulation of DSCC1 gene expression in human HCT116 cells assessed as fold change at 15 uM incubated for 24 hrs by cDNA microarray analysis relative to control; type: functional
HCT-116 [27] = experiment: Induction of cell cycle arrest in human HCT116 cells assessed as accumulation at G0/G1 phase at 20 uM incubated for 18 hrs by propidium iodide staining based flow cytometry (reference value: 43.3%); type: functional
HCT-116 [28] = experiment: Induction of apoptosis in human HCT116 cells assessed as reduction in uncleaved full length caspase 8 level after 24 hrs by Western blot analysis; type: functional, cell-based
HCT-116 [29] = experiment: Decrease in cell cycle associated protein expression in human HCT116 cells assessed as reduction in CDK6 expression at 5 to 20 uM after 24 hrs by Western blot analysis; type: functional, cell-based
HCT-116 [30] = experiment: Induction of cell cycle arrest in human HCT116 cells assessed as accumulation at S phase at 5 uM incubated for 24 hrs by propidium iodide staining based flow cytometry (reference value: 21.2%); type: functional
HCT-116 [31] = experiment: Downregulation of PEG10 gene expression in human HCT116 cells assessed as fold change at 15 uM incubated for 24 hrs by cDNA microarray analysis relative to control; type: functional
MDA-MB-231 = experiment: Antiproliferative activity against human MDA-MB-231 cells after 72 hrs by sulforhodamine B assay; type: functional, cell-based; settings: MDA-MB-231, 72 h
HCT-116 [32] = experiment: Induction of apoptosis in human HCT116 cells assessed as reduction in survivin level at 5 to 20 uM after 24 hrs by Western blot analysis; type: functional, cell-based
HCT-116 [33] = experiment: Induction of apoptosis in human HCT116 cells assessed as increase in cleaved caspase 8 level after 24 hrs by Western blot analysis; type: functional, cell-based

Question: With `CN[C@H](C(=O)N[C@H](C(=O)N[C@@H]1C(=O)N(C)[C@@H]([C@@H](C)O)C(=O)N[C@@H](C(C)C)C(=O)N(C)[C@@H](CC(C)C)C(=O)N[C@@H](C(C)C)C(=O)N(C)[C@@H](C(C)C)C(=O)N(C)[C@@H](Cc2c[nH]c3cccc(OC)c23)C(=O)N[C@@H](C(C)C)C(=O)N[C@@H]([C@H](O)c2ccccc2)C(=O)N[C@@H](C(C)C)C(=O)O[C@@H]1C)C(C)C)C(C)C` (H-[NMeV]VT[NMeT]V[NMeL]V[NMeV][NMeTrp(4-OMe)]V[Phe(3R-OH)]V; ester 3-C) as the molecule, how does the Activity (HCT-116 [1]) read?
Answer: The Activity was “Active”.

Question: What about the “fold change (FC)” value (HCT-116 [2]) of the same molecule?
Answer: Its value is 6.074.

Question: And the “fold change (FC)” value (HCT-116 [3])?
Answer: The value was 4.773.

Question: And the Activity (HCT-116 [4])?
Answer: The Activity was 16.9%.

Question: What about the inhibition (HCT-116 [5]) of the same molecule?
Answer: The inhibition was “Active”.

Question: And the Activity (HCT-116 [6])?
Answer: Its Activity is “Active”.

Question: And the inhibition (HCT-116 [7])?
Answer: The inhibition was “Active”.

Question: What about the IC50 (MRC5) of the same molecule?
Answer: The IC50 was greater than 50 µM.

Question: And the “fold change (FC)” value (HCT-116 [8])?
Answer: Its value is 4.476.

Question: And the “fold change (FC)” value (HCT-116 [9])?
Answer: The value was 4.889.

Question: What about the “fold change (FC)” value (HCT-116 [10]) of the same molecule?
Answer: The value was 4.702.

Question: What about the “fold change (FC)” value (HCT-116 [11]) of the same molecule?
Answer: The value was 5.219.

Question: What about the inhibition (HCT-116 [12]) of the same molecule?
Answer: Its inhibition is “Active”.

Question: What about the IC50 (A549) of the same molecule?
Answer: Its IC50 is 8.35 µM.

Question: What about the Activity (HCT-116 [13]) of the same molecule?
Answer: Its Activity is 10.8%.

Question: What about the Activity (HCT-116 [14]) of the same molecule?
Answer: Its Activity is 12.5%.

Question: What about the Activity (HCT-116 [15]) of the same molecule?
Answer: The Activity was 4.4%.

Question: And the Activity (HCT-116 [16])?
Answer: Its Activity is 30.9%.

Question: What about the Activity (HCT-116 [17]) of the same molecule?
Answer: The Activity was 47.9%.

Question: What about the Activity (HCT-116 [18]) of the same molecule?
Answer: The Activity was 31.4%.

Question: What about the Activity (HCT-116 [19]) of the same molecule?
Answer: Its Activity is 14.7%.

Question: What about the inhibition (HCT-116 [20]) of the same molecule?
Answer: The inhibition was “Dose-dependent effect”.

Question: And the inhibition (HCT-116 [21])?
Answer: The inhibition was “Active”.

Question: What about the inhibition (Mus musculus) of the same molecule?
Answer: The inhibition was “Active”.

Question: What about the inhibition (HCT-116 [22]) of the same molecule?
Answer: Its inhibition is “Dose-dependent effect”.

Question: And the IC50 (HCT-116 [22]; HCT-116, 72 h)?
Answer: The IC50 was 7.61 µM.

Question: And the inhibition (HCT-116 [23])?
Answer: Its inhibition is “Dose-dependent effect”.

Question: What about the Activity [24] of the same molecule?
Answer: The Activity was “Non-Toxic”.

Question: And the Activity (HCT-116 [25])?
Answer: Its Activity is 16.1%.

Question: And the “fold change (FC)” value (HCT-116 [26])?
Answer: Its value is 4.856.

Question: What about the Activity (HCT-116 [27]) of the same molecule?
Answer: Its Activity is 55.4%.

Question: What about the Activity (HCT-116 [28]) of the same molecule?
Answer: The Activity was “Dose-dependent effect”.

Question: And the inhibition (HCT-116 [29])?
Answer: Its inhibition is “Active”.

Question: What about the Activity (HCT-116 [30]) of the same molecule?
Answer: The Activity was 5.6%.

Question: What about the “fold change (FC)” value (HCT-116 [31]) of the same molecule?
Answer: The value was 4.917.

Question: And the IC50 (MDA-MB-231)?
Answer: The IC50 was 9.89 µM.

Question: And the Activity (HCT-116 [32])?
Answer: Its Activity is “Active”.

Question: What about the Activity (HCT-116 [33]) of the same molecule?
Answer: Its Activity is “Dose-dependent effect”.
